Source: patent US6441043B1, “Glyoxylic acid amides” (priority 1997, dated 2002)

Assay: logP determination by HPLC (EEC directive 79/831 Annex V. A8)
Assay type: physicochemical
Settings: HPLC gradient method, acetonitrile/0.1% aqueous phosphoric acid
[1] = E/Z mixture, first value (matches the E isomer)
[2] = E/Z mixture, second printed value (matches the Z isomer)
[3] = single isomer (E or Z as in isomer column)

Row | SMILES | logP [1] | logP [2] | logP [3] | further results
1 | CCOc1ccc(CCNC(=O)C(=NOC)c2ccc(Br)cc2)cc1OC (mixture of isomers) [Example 3] | 3.18 | 3.44 |  | 
2 | CCOc1ccc(CCNC(=O)C(=NOC)c2ccc(C)cc2)cc1OC (mixture of isomers) [Example 5] | 2.87 | 3.05 |  | 
3 | CCOc1ccc(CCNC(=O)C(=NOC)c2ccc(CC)cc2)cc1OC (mixture of isomers) [Example 6] | 3.21 | 3.40 |  | 
4 | CCON=C(C(=O)NCCc1ccc(OCC)c(OC)c1)c1ccc(Br)cc1 (mixture of isomers) [Example 19] | 3.51 | 3.80 |  | 
5 | CCON=C(C(=O)NCCc1ccc(OCC)c(OC)c1)c1ccc(Cl)cc1 (mixture of isomers) [Example 21] | 3.41 | 3.69 |  | 
6 | CCON=C(C(=O)NCCc1ccc(OCC)c(OC)c1)c1ccc(C)cc1 (mixture of isomers) [Example 22] | 3.19 | 3.48 |  | 
7 | CCON=C(C(=O)NCCc1ccc(OCC)c(OC)c1)c1ccc(CC)cc1 (mixture of isomers) [Example 23] | 3.55 | 3.85 |  | 
8 | CCOc1ccc(CCNC(=O)C(=NOC)c2ccc(Cl)cc2)cc1OC (racemic) [Example 1, N-[2-(4-ethoxy-3-methoxyphenyl)-1-ethyl]-2-methoxyimino-2-(4-chlorophenyl)-acetamide] |  |  |  | chromatographic logP [1]: 3.08; chromatographic logP [2]: 3.26
9 | CCOc1ccc(CCNC(=O)C(=NOC)c2ccc(Br)cc2)cc1OC [Example 9] |  |  | 3.44 | 
10 | CCOc1ccc(CCNC(=O)C(=NOC)c2ccc(Br)cc2)cc1OC [Example 10] |  |  | 3.18 | 
11 | CCOc1ccc(CCNC(=O)C(=NOC)c2ccc(Cl)cc2)cc1OC [Example 11] |  |  | 3.08 | 
12 | CCOc1ccc(CCNC(=O)C(=NOC)c2ccc(Cl)cc2)cc1OC [Example 12] |  |  | 3.26 | 
13 | CCOc1ccc(CCNC(=O)C(=NOC)c2ccc(C)cc2)cc1OC [Example 15] |  |  | 2.87 | 
14 | CCOc1ccc(CCNC(=O)C(=NOC)c2ccc(CC)cc2)cc1OC [Example 16] |  |  | 3.04 | 
15 | CCOc1ccc(CCNC(=O)C(=NOC)c2ccc(CC)cc2)cc1OC [Example 17] |  |  | 3.21 | 
16 | CCON=C(C(=O)NCCc1ccc(OCC)c(OC)c1)c1ccc(Br)cc1 [Example 24] |  |  | 3.80 | 
17 | CCON=C(C(=O)NCCc1ccc(OCC)c(OC)c1)c1ccc(C)cc1 [Example 27] |  |  | 3.48 | 
